Key:
[1] = test system: K-562 cancer cells; assay: toxicity effect on K-562 cancer cells as a function of extracellular pH (FACScan and XTT-ELISA); assay type: cell-based
Text: Thus, the toxicity properties of a substance which comes under consideration can be determined experimentally by the FACScan and the XTT-ELISA techniques. Both methods are known in the prior art. […] FACS and XTT techniques can likewise be used to investigate the toxicity of the substances for mononuclear blood cells (MNCs). The proportion of dead cells is detected in the FACS technique by propidium iodide staining, and in the XTT method by conversion of XTT into formazan by mitochondrial dehydrogenase.
To detect pH-sensitive toxic substances, selected substances are allowed to act at various predetermined pH values, for example at pH 5.5, 6.0, 6.5, 7.0 and 7.5, both on tumor cell lines and on MNCs, for example for 4 hours and 24 hours, in order thereafter to measure the number of killed cancer cells or MNCs. Control measurements without addition of pH-sensitive substances are carried out in parallel with this.
The activity of the 4-succinic ester of 2,4-dihydroxybenzoic acid, of trans-3,4-difluorocinnamic acid and of 2,4-dinitrophenol has been investigated. Used for this purpose were the methods of the FACScan and ELISA techniques described above. […] FIG. 2A depicts the effect of trans-3,4-difluorocinnamic acid on K-562 cells. […] FIG. 2B depicts the effect of the same compound on MNCs.

[2] = test system: mononuclear blood cells (MNCs); assay: toxicity on mononuclear blood cells (MNCs) as a function of extracellular pH (FACScan and XTT-ELISA); assay type: cell-based; settings: extracellular pH in the range from 7.2 to 7.4; FIG. 1B
Text: A skilled person is able to find, with the aid of the above information and using his general expert knowledge and a few simple tests, as described hereinafter, compounds which are used according to the invention as medicinal substance. Thus, the toxicity properties of a substance which comes under consideration can be determined experimentally by the FACScan and the XTT-ELISA techniques. Both methods are known in the prior art. It is possible to investigate suspended cancer cell lines such as, for example, K-562, Raji or Daudi by both techniques, but adherent cancer cell lines only by the XTT-ELISA technique. FACS and XTT techniques can likewise be used to investigate the toxicity of the substances for mononuclear blood cells (MNCs). The proportion of dead cells is detected in the FACS technique by propidium iodide staining, and in the XTT method by conversion of XTT into formazan by mitochondrial dehydrogenase. The methods are described, for example, in Tumor-Biologie 1994, 15, 304 and in the biochemistry catalog of Boehringer Mannheim, Germany 0392.C 73.3.1465554 1 CB, Cat. No. 1465 015. […]

[3] = test system: small-cell lung tumor (LXFS 650); assay: tumor growth of implanted small-cell lung tumor (LXFS 650) in nude mice; assay type: in vivo; settings: tail vein injection, 4 consecutive days, FIG. 4
Text: The three compounds mentioned above by way of example have likewise been investigated for their in vivo suitability in an animal model. Nude mice are chosen as animal model, into which it is possible to implant various human tumors. This makes it possible to investigate the therapeutic efficacy of the substances under defined reproducible conditions. An animal experiment of this type is documented in FIG. 4. A routine method which is conventional in the prior art and is outlined below is used.
A small-cell lung tumor (LXFS 650) whose extra-cellular pH of about 6.9 is close to the physiological pH of 7.2-7.3 is implanted into the nude mice. The therapeutic substance used is, as in FIG. 1, 2,4-di-hydroxybenzoic acid (substance (1)). 3-4 weeks after implantation of the tumor, 15 mice with tumors 5-7 mm in diameter are divided into 3 groups: the first group of 5 serves as control group without therapy, and the substance (1) is injected into the tail vein in a concentration of 200 mg/kg/day in the second group of 5 and in a concentration of 400 mg/kg/day in the third group of 5. In the present experiment, 4 injections into the tail vein were carried out on 4 consecutive days. […] The tumor volumes were determined on days 7, 10, 14 and 17.

[4] = K-562 cancer cells, extracellular pH, FIG. 1A

SMILES: O=C(O)CCC(=O)Oc1ccc(C(=O)O)c(O)c1 [4-succinic ester of 2,4-dihydroxybenzoic acid]
- pH of maximum toxicity effect on K-562 cells [1, 4]: 5.7
- pH of onset of toxicity effect on K-562 cells [1, 4]: ~6.5
- toxicity on MNCs [2]: Negligible toxicity

SMILES: O=C(O)c1ccc(O)cc1O [substance (1), 2,4-di-hydroxybenzoic acid]
- effect on tumor growth ([3]; 200 mg/kg/day, only on day 10): onset of a slight effect only on day 10
- tumor growth ([3]; 400 mg/kg/day, after day 7 and up to day 10): cessation of growth
- tumor growth after end of therapy ([3]; 400 mg/kg/day, after day 10, therapy not continued further): the tumor starts to grow again

SMILES: O=C(O)/C=C/c1ccc(F)c(F)c1 [trans-3,4-difluorocinnamic acid]
- extracellular pH until which the cytotoxic effect on K-562 cells is negligible ([1]; cytotoxic effect negligible until the extracellular pH is below this value, K-562 cells, FIG. 2A): below 6.5

— patent US5985927A, “Medicaments for the selective treatment of tumor tissues” (priority 1995, dated 1999)
